In patent US6544930B2, “Compact storage and shipping system for glyphosate herbicide” (Monsanto Technology LLC, priority 1998, dated 2003):
Structures can show the parent of a compound that is named as a salt.

Key:
[1] = cited from earlier work
[2] = Specific gravity / density of aqueous glyphosate salt solutions and compositions (Mettler DA-300 meter); type: physicochemical
Experimental: Specific gravities are measured using a Mettler DA-300 Density/Specific Gravity Meter.
In a 1 liter glass vessel with magnetic stirrer are mixed 479.2 g glyphosate acid, technical grade (assay 96%), 166.0 g monoethanolamine and water to 1000 g. Reaction of the glyphosate acid with the monoethanolamine to form the MEA salt of glyphosate is exothermic. The reaction mixture is allowed to cool to room temperature. […] The density of the solution at 25° C. is […], thus the volume at 25° C. of 1000 g of this solution is 763 ml and the weight/volume concentration of glyphosate is 602 g a.e./l.
A series of aqueous solutions of glyphosate MEA salt, having a range of glyphosate a.e. concentrations, are prepared by the general procedure of Example 1. Specific gravity is measured for each solution.
[…] Cloud point is a measure of the maximum temperature at which a given aqueous composition containing a surfactant and a salt at defined concentrations forms a single-phase solution. Above the cloud point, the surfactant separates from the solution, initially as a hazy or cloudy dispersion, and, upon standing, as a distinct phase generally rising to the surface of the solution. Cloud point is determined by heating the composition until the solution becomes cloudy, and then allowing the composition to cool, with agitation, while its temperature is continuously monitored. A temperature reading taken when the solution clears is a measure of cloud point.

[3] = Glyphosate a.e. weight/volume concentration of salt solution; type: physicochemical; settings: for weight/volume concentration of glyphosate: 25° C., 46.0% by weight glyphosate a.e.; for glyphosate a.e. contained in 1 liter of solution: 30% a.e. by weight solution at 20° C.; for more glyphosate a.e. per liter than IPA salt solution: equal a.e. weight concentration (30% a.e. by weight, 20° C.)
Experimental: Thus 1 liter of 30% a.e. by weight glyphosate potassium salt solution at 20° C. contains approximately 376 g glyphosate a.e./l, whereas 1 liter of 30% a.e. by weight glyphosate IPA salt solution at 20° C. contains approximately 347 g glyphosate a.e./l. In other words, at equal a.e. weight concentration, the potassium salt solution delivers about 8% more glyphosate a.e. per liter.
Similarly, 1 liter of 30% a.e. by weight glyphosate MEA salt solution at 20° C. contains approximately 371 g glyphosate a.e./l. Therefore at equal a.e. weight concentration, the MEA salt solution delivers about 7% more glyphosate a.e. per liter than an IPA salt solution.
In a 1 liter glass vessel with magnetic stirrer are mixed 479.2 g glyphosate acid, technical grade (assay 96%), 166.0 g monoethanolamine and water to 1000 g. Reaction of the glyphosate acid with the monoethanolamine to form the MEA salt of glyphosate is exothermic. The reaction mixture is allowed to cool to room temperature. The specific gravity (20/15.6° C.) of the resulting 62.6% by weight aqueous solution of glyphosate MEA salt, containing 46.0% by weight glyphosate a.e., is measured and found to be 1.32. The density of the solution at 25° C. is […], thus the volume at 25° C. of 1000 g of this solution is 763 ml and the weight/volume concentration of glyphosate is 602 g a.e./l.

[4] = Viscosity of glyphosate salt solutions and compositions; type: physicochemical; settings: 25° C.; 46% a.e. by weight solution without surfactant
Experimental: Specific gravity (20/15.6° C.), viscosity at 25° C. and cloud point are recorded for each composition prepared as shown in Table 5. Cloud point is a measure of the maximum temperature at which a given aqueous composition containing a surfactant and a salt at defined concentrations forms a single-phase solution. Above the cloud point, the surfactant separates from the solution, initially as a hazy or cloudy dispersion, and, upon standing, as a distinct phase generally rising to the surface of the solution. Cloud point is determined by heating the composition until the solution becomes cloudy, and then allowing the composition to cool, with agitation, while its temperature is continuously monitored. A temperature reading taken when the solution clears is a measure of cloud point.
The maximum surfactant concentration attainable in practice in an aqueous concentrate composition containing glyphosate salt at 540 g a.e./l is compared for MEA and IPA salts. This is determined by adding a selected surfactant in increments to a 46% a.e. by weight aqueous solution of the glyphosate salt until the glyphosate weight/volume concentration falls from its initial level (565 g a.e./l for IPA salt, 602 g a.e./l for MEA salt) to 540 g a.e./l. […] When the maximum attainable surfactant concentration is reached, viscosity is measured at 25° C. […]

[5] = Maximum attainable surfactant concentration at 540 g a.e./l glyphosate; type: physicochemical
Experimental: The maximum surfactant concentration attainable in practice in an aqueous concentrate composition containing glyphosate salt at 540 g a.e./l is compared for MEA and IPA salts. This is determined by adding a selected surfactant in increments to a 46% a.e. by weight aqueous solution of the glyphosate salt until the glyphosate weight/volume concentration falls from its initial level (565 g a.e./l for IPA salt, 602 g a.e./l for MEA salt) to 540 g a.e./l. The study is conducted using either Surfactant A or Surfactant F of Table 3 above. When the maximum attainable surfactant concentration is reached, viscosity is measured at 25° C.

Solubility in water = type: physicochemical; settings: 20° C.; for solubility in pure water: weight of salt per weight of solution
Description: Solubility in water of the potassium and MEA salts of glyphosate is believed not to be recorded in prior art but is readily determined by procedures familiar to those skilled in the art. Similarly, aqueous solutions of these salts at concentrations greater than about 40% by weight are believed not to have been specifically disclosed, thus any unusual or unpredicted properties of such solutions have not been publicly known. Concentrations expressed as percent by weight herein relate to parts by weight of salt or acid equivalent per 100 parts by weight of solution.
The solubility of the MEA salt is very similar to the solubility of the IPA salt.

[6] = 20/15.6° C., solution containing 46.0% by weight glyphosate a.e.
[7] = 20/18.6° C., 30% a.e. by weight monobasic salt solution
[8] = MEA salt solution 29.9% a.e. by weight, IPA salt solution 30.2%

Compound: CC(C)N.O=C(O)CNCP(=O)(O)O [glyphosate IPA salt, isopropylammonium salt of glyphosate]
- limit of solubility in aqueous solution ([1]; only slightly higher than about 62% by weight): > 62 % by weight
- Specific Gravity [2, 6]: 1.24
- Specific Gravity [2, 7]: 1.1554
- Specific Gravity [2, 8]: 1.1566
- weight/volume concentration of glyphosate [3]: 565 g a.e./l
- glyphosate a.e. contained in 1 liter of solution [3]: approximately 347 g glyphosate a.e./l
- viscosity [4]: 165 cPs

Compound: O=C(O)CNCP(=O)(O)O
- Specific Gravity [2, 7]: 1.1814

Compound: O=C(O)CNCP(=O)(O)O [glyphosate MEA salt, monoethanolammonium salt of glyphosate]
- Specific Gravity [2, 6]: 1.32
- Specific Gravity ([2]; 20/18.6° C., 30% a.e. by weight monobasic salt solution, listed as monoethanolammonium (MEA)): 1.2357
- specific gravity higher than that of 30.2% IPA salt solution ([2]; 29.9% a.e. by weight MEA salt solution): 3.7%
- Specific Gravity [2, 8]: 1.1991
- specific gravity compared with corresponding IPA salt solution ([2]; all concentrations, FIG. 1): significantly higher
- weight/volume concentration of glyphosate [3]: 602 g a.e./l
- glyphosate a.e. contained in 1 liter of solution [3]: approximately 371 g glyphosate a.e./l
- more glyphosate a.e. per liter than IPA salt solution [3]: about 7%
- surfactant concentration relative to the maximum attainable using the IPA salt [5]: more than 2.5 times
- viscosity [4]: 88 cPs
- solubility in pure water as glyphosate acid equivalent (Solubility in water): about 47 % a.e. by weight
- solubility in pure water as glyphosate acid equivalent (Solubility in water; listed as MEA salt): about 47 % a.e. by weight
- solubility in pure water (Solubility in water): about 64 % by weight

Compound: CCCN.O=C(O)CNCP(=O)(O)O
- Specific Gravity [2, 7]: 1.1429

Compound: CCN.O=C(O)CNCP(=O)(O)O
- Specific Gravity [2, 7]: 1.1599

Compound: CN [methylammonium]
- Specific Gravity [2, 7]: 1.1667

Compound: O=C(O)CNCP(=O)(O)O [glyphosate potassium salt]
- Specific Gravity ([2]; 20/18.6° C., 30% a.e. by weight monobasic salt solution, potassium salt): 1.2539
- glyphosate a.e. contained in 1 liter of solution ([3]; potassium salt): approximately 376 g glyphosate a.e./l
- more glyphosate a.e. per liter than IPA salt solution ([3]; potassium salt): about 8%
- solubility in pure water as glyphosate acid equivalent (Solubility in water; listed as potassium salt, potassium salt): about 44 % a.e. by weight
- solubility in pure water as glyphosate acid equivalent (Solubility in water; potassium salt): about 44 % a.e. by weight
- solubility in pure water (Solubility in water; potassium salt): about 54 % by weight

Compound: C[S+](C)C.O=C([O-])CNCP(=O)(O)O [trimethylsulfonium (TMS)]
- Specific Gravity [2, 7]: 1.1904

Compound: O=C(O)CNCP(=O)(O)O [Glyphosate, N-phosphonomethylglycine]
- solubility in water ([1]; 25° C.): 1.16 % by weight
